We go through one compound from paper PMC9106929 (Circulation research, 2022).

This test concerns the target Piezo1 (Mus musculus, UniProt E2JF22). The test can be described thus: cell-attached single-channel patch clamp, open probability. The class given is cell-based. The note with it: activator, 5 μM in pipette, -50 mV; effect absent in Piezo1-EC-KO cECs. Background: In patch-clamp work, channel activity is measured electrically.

Sequence of Piezo1 (E2JF22 whole entry): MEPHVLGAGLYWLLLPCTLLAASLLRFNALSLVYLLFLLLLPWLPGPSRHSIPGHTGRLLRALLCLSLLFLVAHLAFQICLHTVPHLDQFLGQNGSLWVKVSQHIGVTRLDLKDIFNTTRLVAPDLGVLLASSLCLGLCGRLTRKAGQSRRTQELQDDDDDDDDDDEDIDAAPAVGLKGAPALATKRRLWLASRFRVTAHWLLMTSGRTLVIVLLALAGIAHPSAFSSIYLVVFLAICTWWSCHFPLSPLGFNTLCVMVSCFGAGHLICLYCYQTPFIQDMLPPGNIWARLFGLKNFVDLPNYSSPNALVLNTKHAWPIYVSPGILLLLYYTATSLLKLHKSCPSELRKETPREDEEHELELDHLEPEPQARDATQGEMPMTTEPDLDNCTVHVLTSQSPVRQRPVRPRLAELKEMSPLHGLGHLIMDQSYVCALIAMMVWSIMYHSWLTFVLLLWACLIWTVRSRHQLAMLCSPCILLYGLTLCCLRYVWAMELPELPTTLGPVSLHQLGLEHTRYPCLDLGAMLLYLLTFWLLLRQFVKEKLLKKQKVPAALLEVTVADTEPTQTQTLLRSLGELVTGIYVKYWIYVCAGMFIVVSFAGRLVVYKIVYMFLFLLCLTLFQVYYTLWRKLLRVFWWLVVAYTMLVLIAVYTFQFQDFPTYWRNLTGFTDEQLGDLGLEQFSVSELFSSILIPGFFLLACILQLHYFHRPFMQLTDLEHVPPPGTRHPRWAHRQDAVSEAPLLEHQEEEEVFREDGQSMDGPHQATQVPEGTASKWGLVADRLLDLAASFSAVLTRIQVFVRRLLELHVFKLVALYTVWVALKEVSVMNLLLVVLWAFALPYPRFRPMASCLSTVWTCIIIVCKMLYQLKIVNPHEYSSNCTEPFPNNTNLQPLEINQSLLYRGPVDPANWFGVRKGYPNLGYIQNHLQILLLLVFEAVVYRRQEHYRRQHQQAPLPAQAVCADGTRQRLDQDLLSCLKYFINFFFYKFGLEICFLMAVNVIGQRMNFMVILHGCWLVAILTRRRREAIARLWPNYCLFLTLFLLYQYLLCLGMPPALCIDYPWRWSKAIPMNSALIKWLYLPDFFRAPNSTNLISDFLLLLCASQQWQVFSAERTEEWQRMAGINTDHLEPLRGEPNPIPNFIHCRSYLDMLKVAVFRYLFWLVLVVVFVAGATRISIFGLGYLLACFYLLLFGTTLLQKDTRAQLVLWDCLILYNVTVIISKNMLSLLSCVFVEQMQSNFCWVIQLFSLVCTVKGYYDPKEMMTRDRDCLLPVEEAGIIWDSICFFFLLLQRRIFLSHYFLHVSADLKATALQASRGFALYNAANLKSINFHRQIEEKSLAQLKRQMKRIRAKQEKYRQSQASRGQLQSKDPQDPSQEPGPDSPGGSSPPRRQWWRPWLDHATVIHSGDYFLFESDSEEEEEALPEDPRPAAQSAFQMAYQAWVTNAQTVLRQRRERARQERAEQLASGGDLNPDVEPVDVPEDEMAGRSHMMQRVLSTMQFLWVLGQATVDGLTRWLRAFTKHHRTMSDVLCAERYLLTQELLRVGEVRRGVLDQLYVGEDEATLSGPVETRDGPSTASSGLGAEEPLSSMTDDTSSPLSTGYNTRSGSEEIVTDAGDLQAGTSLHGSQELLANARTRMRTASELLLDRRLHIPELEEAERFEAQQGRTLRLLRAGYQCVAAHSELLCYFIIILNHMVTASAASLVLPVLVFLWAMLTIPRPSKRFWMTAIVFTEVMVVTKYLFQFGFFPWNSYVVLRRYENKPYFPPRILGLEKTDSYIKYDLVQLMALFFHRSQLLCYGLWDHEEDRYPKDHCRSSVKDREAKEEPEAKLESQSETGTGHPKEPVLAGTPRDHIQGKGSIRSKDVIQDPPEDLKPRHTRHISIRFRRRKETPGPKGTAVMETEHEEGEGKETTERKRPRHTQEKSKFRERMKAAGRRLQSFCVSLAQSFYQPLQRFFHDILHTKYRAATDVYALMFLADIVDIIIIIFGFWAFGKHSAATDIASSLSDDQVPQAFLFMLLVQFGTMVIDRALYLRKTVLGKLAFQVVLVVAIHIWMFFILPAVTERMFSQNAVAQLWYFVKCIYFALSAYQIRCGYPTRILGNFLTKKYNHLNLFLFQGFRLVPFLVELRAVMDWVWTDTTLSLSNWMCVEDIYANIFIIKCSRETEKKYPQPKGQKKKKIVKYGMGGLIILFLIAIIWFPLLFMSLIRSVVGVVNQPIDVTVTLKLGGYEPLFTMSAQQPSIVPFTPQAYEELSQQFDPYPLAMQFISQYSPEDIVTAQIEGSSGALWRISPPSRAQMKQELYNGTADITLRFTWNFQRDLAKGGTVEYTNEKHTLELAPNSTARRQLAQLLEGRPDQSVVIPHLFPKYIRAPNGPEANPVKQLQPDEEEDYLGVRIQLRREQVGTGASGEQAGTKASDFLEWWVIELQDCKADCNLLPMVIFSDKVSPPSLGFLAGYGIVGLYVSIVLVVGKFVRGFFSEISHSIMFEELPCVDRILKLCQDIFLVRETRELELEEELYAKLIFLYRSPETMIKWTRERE

Turning to `Clc1cccc(Cl)c1CSc1nnc(-c2cnccn2)s1` [Yoda1], the “cell-attached single-channel patch clamp, open probability” value is reported as “increased the open probability of Piezo1-like currents in Piezo1-EC-Ctrl cECs but not in Piezo1-EC-KO”.
